In patent US20170320837A1, “METHOD FOR TREATING INFLAMMATORY DISORDERS” (Synta Pharmaceuticals Corp., priority 2006, published 2017):
Entries after “also recorded” stand apart in the source; their conditions may differ.

Legend:
glucocorticoid receptors = biological target: T1, glucocorticoid receptors (Homo sapiens, UniProt P04150); assay: Competitive binding assay with tritium labeled dexamethason in Hela S3 cells (legend of FIG. 3)
T1 construct: endogenous in cells; host or cells: HeLa S3
T1 sequence (P04150 1-777): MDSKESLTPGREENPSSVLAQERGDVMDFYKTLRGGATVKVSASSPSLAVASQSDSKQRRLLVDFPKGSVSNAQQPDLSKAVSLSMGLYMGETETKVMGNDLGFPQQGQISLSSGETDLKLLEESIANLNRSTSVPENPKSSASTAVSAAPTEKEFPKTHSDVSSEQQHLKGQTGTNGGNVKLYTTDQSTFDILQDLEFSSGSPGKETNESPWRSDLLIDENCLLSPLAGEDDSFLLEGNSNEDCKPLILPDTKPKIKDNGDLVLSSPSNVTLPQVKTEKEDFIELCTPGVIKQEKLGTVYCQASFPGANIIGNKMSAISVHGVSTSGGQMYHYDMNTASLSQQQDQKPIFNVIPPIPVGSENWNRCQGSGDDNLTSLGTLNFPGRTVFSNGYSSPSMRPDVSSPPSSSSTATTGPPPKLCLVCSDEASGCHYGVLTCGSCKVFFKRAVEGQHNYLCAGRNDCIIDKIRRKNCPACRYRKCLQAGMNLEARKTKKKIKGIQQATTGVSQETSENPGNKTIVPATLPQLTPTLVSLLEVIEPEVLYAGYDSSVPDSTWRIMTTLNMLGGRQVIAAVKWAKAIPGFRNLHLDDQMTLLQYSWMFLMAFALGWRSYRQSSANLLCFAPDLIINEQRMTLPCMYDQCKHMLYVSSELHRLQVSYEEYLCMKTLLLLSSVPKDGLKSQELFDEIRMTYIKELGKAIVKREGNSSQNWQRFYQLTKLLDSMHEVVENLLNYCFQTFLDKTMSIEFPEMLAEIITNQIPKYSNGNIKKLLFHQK

glucocorticoid receptor [1] = assay: Glucocorticoid receptor levels in rat PBMCs, immunoblot; type: cell-based; conditions: rat PBMCs, 0, 1, 5, 25, or 100 nM, 16 hours
Method: (§1) The whole blood samples from healthy human volunteer and male SD rat were collected and the PBMCs were isolated immediately as follows. 5 ml of whole blood was diluted with an equal volume of sterile 1× PBS. The diluted blood was overlayed carefully into a sterile centrifuge tube without disturbing the bottom layer that containing 5 ml of Ficoll-paque plus density gradient solution. The layered blood was centrifuged at 1500×g for 30 minutes at room temperature. The middle thin layer containing PBMCs was carefully removed, transferred to another sterile centrifuge tube, and washed twice with PBS to remove […]. Isolated rat and human PBMCs were cultured in 10% fetal bovine serum/DMEM.
(§2) The rat and human PBMCs were treated with DMSO (control), Compound 226, Compound 287, or 17-DMAG at concentrations of 0, 1, 5, 25, or 100 nM (in DMSO) for 16 hours. The cells were then collected and rinsed in ice-cold PBS and stored in liquid nitrogen until further analysis.
(§3) PBMC were prepared in Western lysis buffer (10 mmol/L HEPES, 42 mmol/L KCl, 5 mmol/L MgCl2, 0.1 mmol/L EDTA, 0.1 mmol/L EGTA, 1 mmol/L DTT, 1% Triton X-100, freshly supplemented with 1× protease inhibitor cocktail from Pierce, Rockford, Ill.). Lysate protein concentrations were quantified by bicinchoninic acid assay (Pierce) and normalized. Equal amounts of protein were loaded onto 10% NuPAGE Bis-Tris Gels (Invitrogen) and subsequently transferred onto polyvinylidene difluoride membranes. The membranes were blocked in 5% milk in TBST. Primary antibody of glucocorticod receptor from Santa Cruz Biotechnology, Inc. was added and incubated at room temperature for 1 hour with shaking. The blots were washed extensively in TBST before secondary antibodies were added for overnight incubation at 4° C. with gentle shaking. The blots were again washed extensively and developed with SuperSignal West Femto substrate (Pierce). The immunoblot analysis was performed to measure the level of total GRs by Quantity One software from Bio-Rad.

glucocorticoid receptor [2] = assay: Glucocorticoid receptor levels in human PBMCs, immunoblot (Example 114); type: cell-based; conditions: human PBMCs, 0, 1, 5, 25, or 100 nM, 16 hours
Method: as §1, §2, §3

glucocorticoid receptor [3] = assay: Glucocorticoid receptor levels in human PBMCs, renal cells and cancer cell lines, immunoblot (Example 115); type: cell-based
Method: Normal human renal proximal tubule epithelial cells and tumor cell lines of MV-4-11, Kasumi-1, and Hela were obtained from Cambrex Bioproducts and American Type Culture Collection, respectively. Cells were cultured with 10% fetal bovine serum/DMEM.
The whole blood samples from healthy human volunteer were collected and the PBMCs were isolated immediately as described in Example 116. Isolated human PBMCs were cultured in 10% fetal bovine serum/DMEM.
Human PBMCs, kasumi-1, My-4-11, Hela, and human renal proximal tubule epithelial cells were treated with DMSO (control), Compound 226, Compound 287, 17-DMAG at concentrations of 0, 5, 25, or 100 nM (in DMSO) for 16 hours. The cells were then collected and rinsed in ice-cold PBS and stored in liquid nitrogen until further analysis.
as §3, with “PBMC, renal and tumor cell pellets” for “PBMC”, “0.1. mmol/LEGTA,” for “0.1 mmol/L EGTA,”, “glucocorticoid” for “glucocorticod”, “(Pierce).” for “(Pierce). The immunoblot analysis was performed to measure the level of total GRs by Quantity One software from Bio-Rad.”

glucocorticoid receptor [4] = assay: Glucocorticoid receptor levels in PBMCs of rats after four days of intravenous dosing, immunoblot; type: in vivo, Sprague-Dawley (SD) rats; conditions: daily intravenously for four days, 17-DMAG 6 mg/kg, Paclitaxel 5 mg/kg, Compound 264 80 mg/kg, Compound 226 50 mg/kg
Method: The test compounds were administered daily intravenously via tail vein for four days. […] All rats were sacrificed at the study day 5. About 1-2 mL of blood samples were collected per animal. The blood samples were then pulled together as a group for PBMC isolation.

Hsp90 protein = assay: Malachite Green Assay of ATPase activity of Hsp90 protein; type: biochemical
Method: Hsp90 protein was obtained from Stressgen (Cat #SPP-770). Assay buffer: 100 mM Tris-HCl, Ph 7.4, 20 mM KCl, 6 mM MgCl2. […] Malachite green reagent was added to the reaction. […] The plate was read by an ELISA reader with an absorbance at 620 nm.

Her2 = assay: Degradation of Her2 in BT-474 cells, immunoblot (Method 1); type: cell-based, Human; conditions: overnight
Method: Human high-Her2 breast carcinoma BT474 (HTB-20), SK-BR-3 (HTB-30) and MCF-7 breast carcinoma (HTB-22) from American Type Culture Collection, VA, USA were grown in Dulbecco's modified Eagle's medium with 4 mM L-glutamine and antibiotics (100 IU/ml penicillin and 100 ug/ml streptomycine; GibcoBRL). To obtain exponential cell growth, cells were trypsinized, counted and seeded at a cell density of 0.5×10^6 cells/ml regularly, every 3 days. All experiments were performed on day 1 after cell passage. • B. Degradation of Her2 in Cells After Treatment with a Compound of the Invention • 1. Method 1
BT-474 cells were treated with 0.5 μM, 2 μM, or 5 μM of 17AAG (a positive control) or 0.5 μM, 2 μM, or 5 μM of Compound 108 or Compound 49 overnight in DMEM medium. After treatment, each cytoplasmic sample was prepared from 1×10^6 cells by incubation of cell lysis buffer (#9803, cell Signaling Technology) on ice for 10 minutes. The resulting supernatant used as the cytosol fractions were dissolved with sample buffer for SDS-PAGE and run on a SDS-PAGE gel, blotted onto a nitrocellulose membrane by using semi-dry transfer. Non-specific binding to nitrocellulose was blocked with 5% skim milk in TBS with 0.5% Tween at room temperature for 1 hour, then probed with anti-Her2/ErB2 mAb (rabbit IgG, #2242, Cell Signaling) and anti-Tubulin (T9026, Sigma) as housekeeping control protein. HRP-conjugated goat anti-rabbit IgG (H+L) and HRP-conjugated horse anti-mouse IgG (H+L) were used as secondary Ab (#7074, #7076, Cell Signaling) and LumiGLO reagent, 20× Peroxide (#7003, Cell Signaling) was used for visualization.

[5] = Kasumi-1 AML cancer cells, 0, 5, 25, or 100 nM, 16 hrs
[6] = MV-4-11 AML cancer cells, 0, 5, 25, or 100 nM, 16 hrs
[7] = cancer cells as well as normal PBMCs and renal cells
[8] = human PBMCs, 0, 5, 25, or 100 nM, 16 hrs
[9] = human renal cells, 0, 5, 25, or 100 nM, 16 hrs

Structure (SMILES) | displacement of tritium labeled dexamethason (glucocorticoid receptors) | expression of glucocorticoid receptors (glucocorticoid receptor [1]) | expression of glucocorticoid receptors (glucocorticoid receptor [2]) | suppression of glucocorticoid receptors, cancer cells compared with normal cells (glucocorticoid receptor [3]) | expression of glucocorticoid receptors (glucocorticoid receptor [3]; [5]) | expression of glucocorticoid receptors (glucocorticoid receptor [3]; [6]) | expression of glucocorticoid receptors (glucocorticoid receptor [3]; [7]) | expression of glucocorticoid receptors (glucocorticoid receptor [3]; [8]) | expression of glucocorticoid receptors (glucocorticoid receptor [3]; [9]) | expression of glucocorticoid receptor (GR) in isolated PBMC compared with vehicle (glucocorticoid receptor [4]) | degradation of Her2 (Her2; 0.5 μM) | degradation of Her2 (Her2; 2 μM) | degradation of Her2 (Her2; 5 μM) | other results
C[C@@H]1C[C@H]2O[C@@H]2/C=C\C=C\C(=O)Cc2c(Cl)c(O)cc(O)c2C(=O)O1 [radicicol] | did not displace the tritium labeled dexamethason | – | – | – | – | – | – | – | – | – | – | – | – | –
CO[C@H]1/C=C\C=C(/C)C(=O)NC2=CC(=O)C(NCCN(C)C)=C(C[C@@H](C)C[C@H](OC)[C@H](O)[C@@H](C)/C=C(\C)[C@@H]1OC(N)=O)C2=O [Compound 17-DMAG, 17-DMAG, reference compound] | – | dose dependent decrease; also recorded: decreased the expression of glucocorticoid receptor in a dose dependent manner | dose dependent decrease; also recorded: decreased the expression of glucocorticoid receptor in a dose dependent manner | more pronounced in cancer cell than in normal cells | dose dependent decrease | dose dependent decrease | suppress the expression of glucocorticoid receptors | dose dependent decrease | dose dependent decrease | decreased | – | – | – | expression of glucocorticoid receptors (glucocorticoid receptor [3]; HeLa cells, 0, 5, 25, or 100 nM, 16 hrs): dose dependent decrease
Oc1ccc(-c2nnc(S)n2-c2cccc3ccccc23)c(O)c1 [Compound 108, 3-(2,4-Dihydroxy-phenyl)-4-(naphthalen-1-yl)-5-mercapto-triazole] | – | – | – | – | – | – | – | – | – | – | partially degradated | partially degradated | almost completely degraded | ATPase activity of Hsp90 (Hsp90 protein; 4 μM): significant inhibition; ATPase activity of Hsp90 (Hsp90 protein; 40 μM): even greater inhibition of ATPase activity of Hsp90 than geldanamycin
CC(C)c1cc(-c2nnc(O)n2-c2ccc(N(C)CCN(C)C)cc2)c(O)cc1O [Compound 287] | – | dose dependent decrease; also recorded: decreased the expression of glucocorticoid receptor in a dose dependent manner | dose dependent decrease; also recorded: decreased the expression of glucocorticoid receptor in a dose dependent manner | more pronounced in cancer cell than in normal cells | dose dependent decrease | dose dependent decrease | suppress the expression of glucocorticoid receptors | dose dependent decrease | dose dependent decrease | – | – | – | – | –
CCc1cc(-c2nnc(S)n2-c2cccc3ccccc23)c(O)cc1O [Compound 49, 3-(2,4-Dihydroxy-5-ethyl-phenyl)-4-(naphthalen-1-yl)-5-mercapto-triazole] | – | – | – | – | – | – | – | – | – | – | partial degradated | complete degradation | complete degradation | –
CC(=O)O[C@H]1C(=O)[C@@]2(C)[C@H]([C@H](OC(=O)c3ccccc3)[C@]3(O)C[C@H](OC(=O)[C@H](O)[C@@H](NC(=O)c4ccccc4)c4ccccc4)C(C)=C1C3(C)C)[C@]1(OC(C)=O)CO[C@@H]1C[C@@H]2O [Paclitaxel, reference compound] | did not displace the tritium labeled dexamethason | – | – | – | – | – | – | – | – | decreased | – | – | – | –
